The values below come from patent US10130684B2, “Oral dissolving films for insulin administration, for treating diabetes” (PHARMEDICA LTD., priority 2011, dated 2018).

This series has as its system cultured human buccal tissue (EpiOral). Briefly: In vitro buccal tissue permeation of insulin solutions with permeation enhancers. In kind it is in vitro ADME. The source says: To enable in vitro study of insulin release, the films were applied onto EpiOral tissues (MatTek) according to the Drug Absorption Protocol (ORL-202 & ORL-606), incorporated herein by reference. EpiOral tissues consist of normal, human-derived epithelial cells, which have been cultured to form multilayered, highly differentiated models of the human buccal phenotypes. EpiOral is a multilayered tissue consisting of an organized basal layer and multiple non-cornified layers analog to native human buccal tissue.
Insulin solution (0.60 mg/mL) was prepared in phosphate buffer (pH 6.8) solution (PBS). The above mentioned potential permeation enhancers were dissolved in the insulin solution to make solutions with desired ratios given in the table below:
Briefly, experiments were conducted in 37° C. incubator with 0.9 mL of PBS in receptor. 3.5 mL of donor solutions (n=4 for each formulation) were placed in the donor compartments. […] were collected from the receptor at time periods of 0.5, 1.0, 2.0, 3.0, 4.0 and 6.0 h, and were later assayed using HPLC.

Turning to “polyoxyethylene (35) lauryl ether [Brij 35]”, for the setting “Brij 35 as permeation enhancer”, the “increase of insulin release compared to the control (without a permeation enhancer)” value is “about 5 times”. Moreover, for the setting “Brij 58, Brij 35, sodium glycocholate compared”, the “permeation effectiveness for insulin among the 3 tested compounds” value is “highest permeation effectiveness”.
